The source made the active and inactive calls. The calls are words filed in the database; no cut-off is given here.
How the values were obtained:
Candida albicans [1] = assay: Antifungal activity against Candida albicans 90028 infected in Galleria mellonella larvae at 16 ug/ml by H and E staining based histological analysis; type: functional, organism-based; settings: dose 16.0 µg/ml
Candida albicans [2] = assay: Antifungal activity against Candida albicans 90028 assessed as fungal growth inhibition at 0.125 ug/ml measured after 48 hrs by microdilution method relative to control; type: functional; settings: read-out: GI
[3] = Toxicity in Galleria mellonella larvae assessed as survival at 16 ug/ml relative to control; settings: at 16 µg/mL
Candida albicans [4] = assay: Induction of plasma membrane permeabilization in Candida albicans infected in human MRC5 cells at 16 ug/ml measured after 18 hrs by propidium iodide staining based confocal laser scanning microscopy; type: functional, organism-based; settings: dose 16.0 µg/ml
Candida albicans [5] = assay: Antifungal activity against Candida albicans 90028 assessed as fungal growth inhibition at 2 ug/ml measured after 48 hrs by microdilution method relative to control; type: functional; settings: read-out: GI
Candida albicans [6] = assay: Antifungal activity against Candida albicans 90028 assessed as fungal growth inhibition at 0.25 ug/ml measured after 18 hrs by microdilution method relative to control; type: functional; settings: read-out: GI
[7] = Drug uptake in Galleria mellonella larvae assessed as increase in fluorescence in longitudinal larva slides measured after 2 hrs by fluorescence assay; type: ADME, tissue-based
Candida albicans [8] = assay: Antifungal activity against Candida albicans 90028 assessed as fungal growth inhibition measured after 48 hrs by microdilution method; type: functional
Candida albicans [9] = assay: Antifungal activity against Candida albicans 90028 assessed as fungal growth inhibition at 1 ug/ml measured after 18 hrs by microdilution method relative to control; type: functional; settings: read-out: GI
Candida albicans [10] = assay: Antifungal activity against Candida albicans 90028 assessed as fungal growth inhibition at 16 ug/ml measured after 48 hrs by microdilution method relative to control; type: functional; settings: read-out: GI
Candida albicans [11] = assay: Antifungal activity against Candida albicans 90028 assessed as fungal growth inhibition at 0.0313 ug/ml measured after 18 hrs by microdilution method relative to control; type: functional; settings: read-out: GI
[12] = Cytotoxicity against African green monkey Vero cells by XTT assay; type: cell-based; settings: chlorocebus sabaeus
Candida albicans [13] = assay: Antifungal activity against Candida albicans 90028 assessed as fungal growth inhibition at 0.125 ug/ml measured after 18 hrs by microdilution method relative to control; type: functional; settings: read-out: GI
Candida albicans [14] = assay: Antifungal activity against Candida albicans 90028 assessed as fungal growth inhibition at 0.0625 ug/ml measured after 48 hrs by microdilution method relative to control; type: functional; settings: read-out: GI
Candida albicans [15] = assay: Induction of cell demise in Candida albicans infected in human MRC5 cells at 16 ug/ml measured after 18 hrs by AO/propidium iodide staining based confocal laser scanning microscopy; type: functional, organism-based; settings: dose 16.0 µg/ml
Candida albicans [16] = assay: Antifungal activity against Candida albicans 90028 assessed as fungal growth inhibition at 4 ug/ml measured after 18 hrs by microdilution method relative to control; type: functional; settings: read-out: GI
Candida albicans [17] = assay: Antifungal activity against Candida albicans 90028 assessed as fungal growth inhibition at 0.0313 ug/ml measured after 48 hrs by microdilution method relative to control; type: functional; settings: read-out: GI
Candida albicans [18] = assay: Antifungal activity against Candida albicans 90028 assessed as fungal growth inhibition at 16 ug/ml measured after 18 hrs by microdilution method relative to control; type: functional; settings: read-out: GI
Candida albicans [19] = assay: Antifungal activity against Candida albicans 90028 assessed as fungal growth inhibition at 8 ug/ml measured after 18 hrs by microdilution method relative to control; type: functional; settings: read-out: GI
Candida albicans [20] = assay: Antifungal activity against Candida albicans 90028 assessed as fungal growth inhibition at 8 ug/ml measured after 48 hrs by microdilution method relative to control; type: functional; settings: read-out: GI
Candida albicans [21] = assay: Induction of plasma membrane permeabilization in Candida albicans infected in human TR146 cells at 16 ug/ml measured after 18 hrs by propidium iodide staining based confocal laser scanning microscopy; type: functional, organism-based; settings: dose 16.0 µg/ml
Candida albicans [22] = assay: Antifungal activity against Candida albicans 90028 assessed as fungal growth inhibition at 0.25 ug/ml measured after 48 hrs by microdilution method relative to control; type: functional; settings: read-out: GI
Candida albicans [23] = assay: Antifungal activity against Candida albicans 90028 assessed as fungal growth inhibition at 4 ug/ml measured after 48 hrs by microdilution method relative to control; type: functional; settings: read-out: GI
Candida albicans [24] = assay: Antifungal activity against Candida albicans 90028 assessed as fungal growth inhibition at 0.5 ug/ml measured after 48 hrs by microdilution method relative to control; type: functional; settings: read-out: GI
Candida albicans [25] = assay: Antifungal activity against Candida albicans 90028 assessed as fungal growth inhibition at 2 ug/ml measured after 18 hrs by microdilution method relative to control; type: functional; settings: read-out: GI
Candida albicans [26] = assay: Antifungal activity against Candida albicans 90028 assessed as fungal growth inhibition at 0.0625 ug/ml measured after 18 hrs by microdilution method relative to control; type: functional; settings: read-out: GI
Candida albicans [27] = assay: Antifungal activity against Candida albicans 90028 assessed as fungal growth inhibition at 0.5 ug/ml measured after 18 hrs by microdilution method relative to control; type: functional; settings: read-out: GI
Candida albicans [28] = assay: Fungicidal activity against Candida albicans 90028 preincubated for 48 hrs followed by plating on SD agar and measured after 48 hrs; type: functional; settings: time 96 hrs
[29] = Cytotoxicity against human MRC5 cells by CellTiter 96 Aqueous One Solution Reagent based assay; type: cell-based
Candida albicans [30] = assay: Antifungal activity against Candida albicans 90028 assessed as fungal growth inhibition at 1 ug/ml measured after 48 hrs by microdilution method relative to control; type: functional; settings: read-out: GI
Candida albicans [31] = assay: Induction of cell demise in Candida albicans infected in human TR146 cells at 16 ug/ml measured after 18 hrs by AO/propidium iodide staining based confocal laser scanning microscopy; type: functional, organism-based; settings: dose 16.0 µg/ml
Candida albicans [32] = assay: Antifungal activity against Candida albicans 90028 infected in Galleria mellonella larvae assessed as increase in larvae survival at MFC measured 96 hrs post-infection relative to control; type: functional
[33] = Drug uptake in Galleria mellonella larvae assessed as increase in fluorescence between cell wall and muscle layer measured after 2 hrs by fluorescence assay; type: ADME
[34] = Drug uptake in Galleria mellonella larvae assessed as increase in fluorescence near the proventriculus measured after 2 hrs by fluorescence assay; type: ADME
Vero = assay: Cytotoxicity against African green monkey Vero cells at 0.25 to 512 ug/ml by XTT assay relative to control; type: cell-based; settings: chlorocebus sabaeus, at 0.25 to 512 µg/mL, dose 0.25-512 µg/ml

Structure (SMILES) | Activity (Candida albicans [1]) | inhibition of growth at 0.125 µg/mL (Candida albicans [2]) | survival [3] | Activity (Candida albicans [4]) | inhibition of growth at 2 µg/mL (Candida albicans [5]) | inhibition of growth at 0.25 µg/mL (Candida albicans [6]) | inhibition of growth at 1 µg/mL (Candida albicans [9]) | inhibition of growth at 16 µg/mL (Candida albicans [10]) | inhibition of growth at 0.0313 µg/mL (Candida albicans [11]) | inhibition of growth at 0.125 µg/mL (Candida albicans [13]) | inhibition of growth at 0.0625 µg/mL (Candida albicans [14]) | Activity (Candida albicans [15]) | inhibition of growth at 4 µg/mL (Candida albicans [16]) | inhibition of growth at 0.0313 µg/mL (Candida albicans [17]) | inhibition of growth at 16 µg/mL (Candida albicans [18]) | inhibition of growth at 8 µg/mL (Candida albicans [19]) | inhibition of growth at 8 µg/mL (Candida albicans [20]) | Activity (Candida albicans [21]) | inhibition of growth at 0.25 µg/mL (Candida albicans [22]) | inhibition of growth at 4 µg/mL (Candida albicans [23]) | further results
O=[N+]([O-])c1cc(S(=O)(=O)C(F)(F)I)ccc1N/N=C\c1ccc(C2=C3C=CC=[N+]3[B-](F)(F)n3cccc32)cc1 | inactive | 95.5% | 100% | Active | 100% | 100% | 100% | 100% | 100% | 100% | 94.3% | Active | 100% | 75.8% | 100% | 100% | 100% | Active | 97% | 100% | Drug uptake [7]: Not Active; MIC (Candida albicans [8]): inactive; CC50 [12]: ≥ 8 µg/mL; inhibition of growth at 0.5 µg/mL (Candida albicans [24]): 100%; inhibition of growth at 2 µg/mL (Candida albicans [25]): 100%; inhibition of growth at 0.0625 µg/mL (Candida albicans [26]): 100%; inhibition of growth at 0.5 µg/mL (Candida albicans [27]): 100%; MFC (Candida albicans [28]): ≥ 16 µg/mL; CC50 [29]: ≥ 16 µg/mL; inhibition of growth at 1 µg/mL (Candida albicans [30]): 100%; Activity (Candida albicans [31]): Active
O=[N+]([O-])c1cc(S(=O)(=O)C(Cl)(Cl)Br)ccc1N/N=C\c1ccc(C2=C3C=CC=[N+]3[B-](F)(F)n3cccc32)cc1 | Active | 99.7% | 93% | Active | 100% | 100% | 100% | 100% | 99.7% | 99.7% | 99.8% | Active | 100% | 99.7% | 100% | 100% | 100% | Active | 100% | 100% | Activity (Candida albicans [32]): 61.47%; CC50 [12]: ≥ 8 µg/mL; Drug uptake [33]: Active; inhibition of growth at 0.5 µg/mL (Candida albicans [24]): 100%; inhibition of growth at 2 µg/mL (Candida albicans [25]): 100%; inhibition of growth at 0.0625 µg/mL (Candida albicans [26]): 99.8%; inhibition of growth at 0.5 µg/mL (Candida albicans [27]): 100%; MFC (Candida albicans [28]): ≥ 16 µg/mL; CC50 [29]: ≥ 256 µg/mL; inhibition of growth at 1 µg/mL (Candida albicans [30]): 100%; Drug uptake [34]: Active; Activity (Candida albicans [31]): Active
O=[N+]([O-])c1cc(S(=O)(=O)C(F)(F)Cl)ccc1N/N=C\c1ccc(C2=C3C=CC=[N+]3[B-](F)(F)n3cccc32)cc1 | inactive | 100% | 93% | Active | 100% | 100% | 100% | 100% | 100% | 99.8% | 99.8% | Active | 100% | 99.8% | 100% | 100% | 100% | Active | 99.9% | 100% | Drug uptake [7]: Not Active; MIC (Candida albicans [8]): inactive; inhibition of growth at 0.5 µg/mL (Candida albicans [24]): 100%; inhibition of growth at 2 µg/mL (Candida albicans [25]): 99.9%; inhibition of growth at 0.0625 µg/mL (Candida albicans [26]): 100%; inhibition of growth at 0.5 µg/mL (Candida albicans [27]): 99.8%; Activity (Vero): 100%; MFC (Candida albicans [28]): ≥ 16 µg/mL; CC50 [29]: ≥ 16 µg/mL; inhibition of growth at 1 µg/mL (Candida albicans [30]): 100%; Drug uptake [34]: Active; Activity (Candida albicans [31]): Active

From ChEMBL document CHEMBL4680208, “Sulfone derivatives enter the cytoplasm of Candida albicans sessile cells” (Eur J Med Chem, 2020)
